Data as given in patent publication US9643980B2, “Benzoxazepin oxazolidinone compounds and methods of use” (Genentech, Inc., priority 2015, dated 2017).
Where two headings read alike, the source gives them in different places.

What was measured:
PI3Kγ [1] = target: T1, PI3Kγ (Homo sapiens, UniProt P48736); test: PI3K binding assay (lipid kinase reaction, ADP-Glo), PI3K gamma; assay type: biochemical; details: Table 2A; first value of cell (ADP-Glo, Example 901)
Description: (§1) Reactions are carried out using the following conditions for each PI3K isoform as in Table 5.
(§2) All reactions are carried out at room temperature. […] The reaction is started by the addition of 2 μL ATP/MgCl2. The kinase reaction buffer contains 50 mM HEPES, 50 mM NaCl 3 mM MgCl2, 0.01% BSA, 1% DMSO, and enzyme and substrate concentrations as indicated in the above table. The reaction is stopped by the addition of 10 μL ADP-Glo reagent. Plates are read in a Perkin Elmer Envision system using luminescence mode. 10 point dose response curves are generated for each test compound. Ki values for each compound are determined using the Morrison Equation.

PI3Kδ = PI3Kδ (Homo sapiens, UniProt O00329); test: PI3K binding assay (lipid kinase reaction, ADP-Glo), PI3K delta; assay type: biochemical; details: Table 2A; first value of cell (ADP-Glo, Example 901)
Description: as §1, §2

[2] = system: HCC1954 cells (PI3Kα mutant H1047R); test: In vitro cell viability assay (Cell Titer-Glo), HCC1954
Description: (§6) Cells were seeded (1,500 per well) in 384-well plates for 16 h. On day 2, nine serial 1:3 compound dilutions were made in DMSO in a 96-well plate. The compounds were then further diluted into growth media using a Rapidplate robot (Zymark Corp.). The diluted compounds were then added to quadruplicate wells in the 384-well cell plates and incubated at 37° C. and 5% CO2. After 4 d, relative numbers of viable cells were measured by luminescence using Cell Titer-Glo (Promega) according to the manufacturer's instructions and read on a Wallac Multilabel Reader (Perkin-Elmer). EC50 values were calculated using Prism 6.0 software (GraphPad).

[3] = system: KPL4 breast cancer cell line (PI3Kα mutant H1047R) tumors; details: KPL4 xenograft in SCID mice, daily PO (oral) dosing; for Tolerability / treatment-related body weight loss: all doses; for Inhibition of KPL4 tumor growth in vivo: FIGS. 2A and 2B
Description: (70-72° F.) and 40-60% humidity.
Tumor weight may be estimated with the assumption that 1 mg is equivalent to 1 mm^3 of tumor volume.

P-PRAS40 SW48(H1047R) = test: Inhibition of P-PRAS40 in SW48 isogenic cells, PI3Kα mutant H1047R; assay type: cell-based; details: for EC50: Homo sapiens, SW48, 24 hours of compound treatment, read-out: P-PRAS40 SW48(H1047R) EC50; for Fold Selectivity for SW48(H1047R) vs. SW48(parental): EC50 potency ratio, p value (Student t-Test) given
Description: (§3) All statistics were performed using KaleidaGraph Software (version 4.1.3). A Student t-Test was performed using unpaired data with equal variance to compare activity against mutant cells and wild-type cells. P<0.05 is considered to be significant.
(§4) The following assays are intended for determining the cellular potency and mutant selectivity of small molecule PI3Kα inhibitors. […] Mutant selectivity of PI3Kα inhibitors is determined by EC50 potency ratios in the WT vs. E545K cell lines and WT vs. H1047R cell lines.
(§5) The three cell lines (WT, E545K, and H1047R) are plated and assayed in parallel. The following day, test compounds are serially diluted in dimethyl sulfoxide (DMSO) and added to cells (final DMSO concentration 0.5%). […] Cell lysates are added to assay plates pre-coated with antibodies against phosphorylated PRAS40. Phosphorylated PRAS40 in samples are allowed to bind to the capture antibodies overnight at 4° C. The detection antibody (anti-total PRAS40, labeled with an electrochemiluminescent SULFO-TAG) is added to the bound lysate and incubated for 1 hour at room temperature. The MSD Read Buffer is added such that when a voltage is applied to the plate electrodes, the labels bound to the electrode surface emit light. The MSD Sector Instrument measures the intensity of the light, and quantitatively measures the amount of phosphor-PRAS40 in the sample. Percent inhibition of PRAS40 phosphorylation by varying concentrations of test compounds is calculated relative to untreated controls. EC50 values are calculated using the 4 parameter logistic nonlinear regression dose-response model.

PI3Kβ [4] = target: T2, PI3Kβ (Homo sapiens, UniProt P42338); test: PI3K binding assay (lipid kinase reaction, ADP-Glo), PI3K beta; assay type: biochemical; details: Table 2A; first value of cell (ADP-Glo, Example 901)
Description: as §1, §2

P-PRAS40 SW48(parental) = test: Inhibition of P-PRAS40 in SW48 isogenic cells, PI3Kα wild-type (parental); details: Homo sapiens, SW48, 24 h
Description: The three cell lines (WT, E545K, and H1047R) are plated and assayed in parallel. The following day, test compounds are serially diluted in dimethyl sulfoxide (DMSO) and added to cells (final DMSO concentration 0.5%). Cells are then incubated for 24 hours at 37° C. and 5% CO2. […] Cell lysates are added to assay plates pre-coated with antibodies against phosphorylated PRAS40. Phosphorylated PRAS40 in samples are allowed to bind to the capture antibodies overnight at 4° C. The detection antibody (anti-total PRAS40, labeled with an electrochemiluminescent SULFO-TAG) is added to the bound lysate and incubated for 1 hour at room temperature. The MSD Read Buffer is added such that when a voltage is applied to the plate electrodes, the labels bound to the electrode surface emit light. The MSD Sector Instrument measures the intensity of the light, and quantitatively measures the amount of phosphor-PRAS40 in the sample. Percent inhibition of PRAS40 phosphorylation by varying concentrations of test compounds is calculated relative to untreated controls. EC50 values are calculated using the 4 parameter logistic nonlinear regression dose-response model.

P-PRAS40 SW48(E545K) = test: Inhibition of P-PRAS40 in SW48 isogenic cells, PI3Kα mutant E545K; assay type: cell-based; details: for EC50: Homo sapiens, SW48, 24 hours of compound treatment, read-out: P-PRAS40 SW48(E545K) EC50; for Fold Selectivity for SW48(E545K) vs. SW48(parental): EC50 potency ratio, p value (Student t-Test) given
Description: as §3, §4, §5

PI3Kα = PI3Kα (Homo sapiens, UniProt P42336); test: PI3K binding assay (lipid kinase reaction, ADP-Glo), PI3K alpha; assay type: biochemical; details: for Ki: first value of cell (ADP-Glo, Example 901), read-out: PI3Kα Ki
Description: as §1, §2

[5] = system: KPL4 cells (PI3Kα mutant H1047R); test: In vitro cell viability assay (Cell Titer-Glo), KPL4
Description: as §6

[6] = system: MCF7 cells (PI3Kα mutant E545K); test: In vitro cell viability assay (Cell Titer-Glo), MCF7
Description: as §6

[7] = system: locally advanced or metastatic solid tumors; details: phase Ia, single agent; all responses in patients with PIK3CA mutant tumors (Juric D. et al. AACR 2013); cited from earlier work
PI3Kγ [8] = target: T1, PI3Kγ; test: Fluorescence polarization (FP) Ki, methods of Example 901 of U.S. Pat. No. 8,242,104, PI3K gamma; details: read-out: PI3Kγ FP Ki; Table 2A; second value of cell after slash (FP)
PI3Kβ [9] = target: T2, PI3Kβ; test: Fluorescence polarization (FP) Ki, methods of Example 901 of U.S. Pat. No. 8,242,104, PI3K beta; details: read-out: PI3Kβ FP Ki; Table 2A; second value of cell after slash (FP)
[10] = Homo sapiens, HCC1954, 96 h, read-out: HCC1954 antiproliferative EC50 (μM)
[11] = read-out: P-PRAS40 SW48(parental) EC50 (nM)
[12] = Table 2A, selectivity ratio (fold)
[13] = KPL4, 96 h, read-out: KPL4 antiproliferative EC50 (μM)
[14] = Homo sapiens, MCF7, 96 h, read-out: MCF7 antiproliferative EC50 (μM)
[15] = read-out: HCC1954 antiproliferative EC50, 4 d incubation, Cell Titer-Glo
[16] = read-out: KPL4 antiproliferative EC50, 4 d incubation, Cell Titer-Glo
[17] = read-out: MCF7 antiproliferative EC50, 4 d incubation, Cell Titer-Glo

T1 sequence (P48736 whole entry, canonical isoform): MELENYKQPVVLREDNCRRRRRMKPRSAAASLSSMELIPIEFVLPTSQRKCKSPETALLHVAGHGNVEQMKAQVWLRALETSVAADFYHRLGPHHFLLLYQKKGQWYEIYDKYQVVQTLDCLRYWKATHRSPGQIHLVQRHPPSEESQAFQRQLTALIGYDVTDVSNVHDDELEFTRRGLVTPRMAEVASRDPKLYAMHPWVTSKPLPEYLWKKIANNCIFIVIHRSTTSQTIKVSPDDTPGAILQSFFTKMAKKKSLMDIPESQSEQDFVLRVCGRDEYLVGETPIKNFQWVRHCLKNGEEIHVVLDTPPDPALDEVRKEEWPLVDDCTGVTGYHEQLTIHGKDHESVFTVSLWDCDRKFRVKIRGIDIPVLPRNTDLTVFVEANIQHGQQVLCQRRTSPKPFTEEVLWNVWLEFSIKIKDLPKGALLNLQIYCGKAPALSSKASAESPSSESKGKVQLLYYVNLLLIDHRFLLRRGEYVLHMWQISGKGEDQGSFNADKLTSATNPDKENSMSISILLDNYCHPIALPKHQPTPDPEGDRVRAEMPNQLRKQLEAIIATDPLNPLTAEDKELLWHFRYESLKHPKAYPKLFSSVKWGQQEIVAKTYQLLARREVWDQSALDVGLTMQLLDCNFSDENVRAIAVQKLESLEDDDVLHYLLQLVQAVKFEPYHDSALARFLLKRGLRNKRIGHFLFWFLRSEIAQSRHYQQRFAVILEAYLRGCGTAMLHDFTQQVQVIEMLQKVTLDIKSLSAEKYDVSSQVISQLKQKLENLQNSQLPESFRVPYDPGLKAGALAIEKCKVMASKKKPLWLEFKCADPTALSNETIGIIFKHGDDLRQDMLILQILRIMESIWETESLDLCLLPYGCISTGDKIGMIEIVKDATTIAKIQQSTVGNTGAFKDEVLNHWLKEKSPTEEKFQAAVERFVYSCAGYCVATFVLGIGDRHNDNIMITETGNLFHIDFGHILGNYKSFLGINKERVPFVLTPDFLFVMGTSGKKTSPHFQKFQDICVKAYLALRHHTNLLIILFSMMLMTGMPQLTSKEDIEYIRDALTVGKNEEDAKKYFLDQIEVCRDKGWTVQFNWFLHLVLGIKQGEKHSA
Sequence of PI3Kδ (O00329 whole entry): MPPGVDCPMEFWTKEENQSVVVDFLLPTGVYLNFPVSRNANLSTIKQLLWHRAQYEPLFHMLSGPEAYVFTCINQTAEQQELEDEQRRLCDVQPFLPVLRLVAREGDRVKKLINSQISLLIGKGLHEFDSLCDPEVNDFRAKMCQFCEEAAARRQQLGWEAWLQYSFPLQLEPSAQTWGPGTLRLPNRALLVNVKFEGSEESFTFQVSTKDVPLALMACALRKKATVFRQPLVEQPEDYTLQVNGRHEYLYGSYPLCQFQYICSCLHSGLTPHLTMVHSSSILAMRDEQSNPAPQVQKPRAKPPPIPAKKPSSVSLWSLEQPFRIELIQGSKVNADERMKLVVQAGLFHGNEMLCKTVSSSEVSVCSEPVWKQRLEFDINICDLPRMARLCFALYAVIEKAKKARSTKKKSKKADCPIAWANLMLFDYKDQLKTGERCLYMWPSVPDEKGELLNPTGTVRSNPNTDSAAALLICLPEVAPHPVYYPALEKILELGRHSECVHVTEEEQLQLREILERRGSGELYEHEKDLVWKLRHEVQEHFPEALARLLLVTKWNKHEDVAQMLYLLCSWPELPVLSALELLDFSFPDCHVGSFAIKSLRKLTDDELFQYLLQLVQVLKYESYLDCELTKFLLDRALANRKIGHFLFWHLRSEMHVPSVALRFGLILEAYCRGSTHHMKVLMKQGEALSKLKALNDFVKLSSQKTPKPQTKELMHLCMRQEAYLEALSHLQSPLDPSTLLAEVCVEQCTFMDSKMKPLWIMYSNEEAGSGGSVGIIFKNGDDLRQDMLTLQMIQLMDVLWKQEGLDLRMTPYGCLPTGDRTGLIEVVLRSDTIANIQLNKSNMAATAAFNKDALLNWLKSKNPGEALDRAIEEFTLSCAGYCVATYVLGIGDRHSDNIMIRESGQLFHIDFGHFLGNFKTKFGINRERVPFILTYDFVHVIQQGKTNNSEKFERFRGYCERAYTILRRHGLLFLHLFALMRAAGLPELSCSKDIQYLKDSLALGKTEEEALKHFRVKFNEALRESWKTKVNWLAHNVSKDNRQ
Sequence of PI3Kδ (P27986 whole entry partner): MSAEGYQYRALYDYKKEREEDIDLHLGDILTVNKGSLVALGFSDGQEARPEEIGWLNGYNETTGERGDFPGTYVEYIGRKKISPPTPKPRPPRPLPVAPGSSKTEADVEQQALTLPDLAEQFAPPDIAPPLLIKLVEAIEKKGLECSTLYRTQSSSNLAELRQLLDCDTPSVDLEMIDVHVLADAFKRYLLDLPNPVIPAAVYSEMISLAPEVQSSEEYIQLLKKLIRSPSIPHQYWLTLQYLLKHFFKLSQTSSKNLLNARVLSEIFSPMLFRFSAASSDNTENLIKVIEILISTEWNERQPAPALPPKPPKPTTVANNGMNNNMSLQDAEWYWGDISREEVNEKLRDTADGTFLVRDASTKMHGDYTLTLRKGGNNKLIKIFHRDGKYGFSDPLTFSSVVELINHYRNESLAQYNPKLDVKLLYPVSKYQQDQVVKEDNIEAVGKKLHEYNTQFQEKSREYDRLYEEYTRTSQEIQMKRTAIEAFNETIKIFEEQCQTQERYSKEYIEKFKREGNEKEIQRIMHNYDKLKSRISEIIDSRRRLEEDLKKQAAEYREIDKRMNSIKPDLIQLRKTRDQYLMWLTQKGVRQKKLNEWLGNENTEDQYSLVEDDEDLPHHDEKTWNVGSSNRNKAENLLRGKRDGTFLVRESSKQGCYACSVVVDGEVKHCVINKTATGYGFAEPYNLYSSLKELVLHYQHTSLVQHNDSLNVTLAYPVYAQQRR
T2 sequence (P42338 whole entry): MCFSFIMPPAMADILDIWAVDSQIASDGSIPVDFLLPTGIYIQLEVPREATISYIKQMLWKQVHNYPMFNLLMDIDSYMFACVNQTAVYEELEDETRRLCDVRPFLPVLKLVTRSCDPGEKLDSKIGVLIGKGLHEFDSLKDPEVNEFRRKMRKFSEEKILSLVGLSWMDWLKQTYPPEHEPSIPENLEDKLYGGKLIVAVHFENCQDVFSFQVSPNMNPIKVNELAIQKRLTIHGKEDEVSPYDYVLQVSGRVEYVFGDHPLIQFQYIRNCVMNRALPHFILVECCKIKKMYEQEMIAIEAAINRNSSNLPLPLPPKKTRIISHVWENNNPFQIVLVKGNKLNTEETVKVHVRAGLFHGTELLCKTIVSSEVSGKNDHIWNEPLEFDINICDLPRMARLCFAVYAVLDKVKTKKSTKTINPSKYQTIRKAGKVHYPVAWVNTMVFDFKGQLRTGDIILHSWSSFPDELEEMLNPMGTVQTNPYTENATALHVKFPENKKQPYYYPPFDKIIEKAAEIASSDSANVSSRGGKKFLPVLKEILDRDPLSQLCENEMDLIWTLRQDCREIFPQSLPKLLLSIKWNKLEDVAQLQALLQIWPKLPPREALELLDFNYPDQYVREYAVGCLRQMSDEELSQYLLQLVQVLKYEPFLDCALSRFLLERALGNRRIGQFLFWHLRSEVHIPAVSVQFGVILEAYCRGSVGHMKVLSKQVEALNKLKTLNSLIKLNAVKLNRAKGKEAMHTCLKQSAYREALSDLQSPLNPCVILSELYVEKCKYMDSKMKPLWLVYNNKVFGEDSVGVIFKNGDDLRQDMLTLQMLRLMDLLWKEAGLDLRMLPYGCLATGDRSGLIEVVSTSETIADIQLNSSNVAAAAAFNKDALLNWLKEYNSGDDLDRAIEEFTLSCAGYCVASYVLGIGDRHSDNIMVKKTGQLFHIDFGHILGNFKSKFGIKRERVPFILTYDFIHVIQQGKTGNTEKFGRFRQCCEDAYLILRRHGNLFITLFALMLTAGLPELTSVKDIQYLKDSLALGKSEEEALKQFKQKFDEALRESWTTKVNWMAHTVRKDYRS
T2 sequence (P27986 whole entry partner): as the sequence (P27986 whole entry partner) above
Sequence of PI3Kα (P42336 whole entry): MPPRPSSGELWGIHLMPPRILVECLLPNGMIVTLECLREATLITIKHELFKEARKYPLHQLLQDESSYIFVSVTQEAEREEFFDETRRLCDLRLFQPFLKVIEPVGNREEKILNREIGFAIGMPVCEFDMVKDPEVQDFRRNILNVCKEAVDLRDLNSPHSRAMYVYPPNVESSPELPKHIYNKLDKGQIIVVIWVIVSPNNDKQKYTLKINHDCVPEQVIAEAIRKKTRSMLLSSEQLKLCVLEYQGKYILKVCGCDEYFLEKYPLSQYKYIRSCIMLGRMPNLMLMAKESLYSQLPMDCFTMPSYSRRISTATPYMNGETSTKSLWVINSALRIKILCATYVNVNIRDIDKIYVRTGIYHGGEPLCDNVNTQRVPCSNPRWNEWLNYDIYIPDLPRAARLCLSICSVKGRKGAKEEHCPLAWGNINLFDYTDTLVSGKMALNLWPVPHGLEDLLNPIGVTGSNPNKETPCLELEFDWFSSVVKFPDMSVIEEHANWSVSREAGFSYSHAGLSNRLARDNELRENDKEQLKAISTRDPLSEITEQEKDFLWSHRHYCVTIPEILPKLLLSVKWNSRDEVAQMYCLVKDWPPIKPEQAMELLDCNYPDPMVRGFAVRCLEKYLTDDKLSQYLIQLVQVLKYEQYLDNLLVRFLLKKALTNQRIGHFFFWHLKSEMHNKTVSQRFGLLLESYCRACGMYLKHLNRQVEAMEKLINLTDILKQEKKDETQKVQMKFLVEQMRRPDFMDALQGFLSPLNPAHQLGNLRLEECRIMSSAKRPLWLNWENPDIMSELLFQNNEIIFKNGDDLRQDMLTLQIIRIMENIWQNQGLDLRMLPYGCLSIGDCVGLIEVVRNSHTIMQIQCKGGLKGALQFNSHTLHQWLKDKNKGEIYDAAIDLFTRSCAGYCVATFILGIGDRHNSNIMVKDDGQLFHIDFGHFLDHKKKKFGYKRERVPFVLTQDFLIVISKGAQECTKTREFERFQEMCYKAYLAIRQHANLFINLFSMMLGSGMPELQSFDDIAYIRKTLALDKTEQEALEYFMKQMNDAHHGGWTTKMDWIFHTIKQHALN
Sequence of PI3Kα (P27986 whole entry partner): as the sequence (P27986 whole entry partner) above

Compound | Ki (PI3Kγ [1]) [nM] | Ki (PI3Kδ) [nM] | EC50 [2, 10] [µM] | Tolerability / treatment-related body weight loss [3] | Inhibition of KPL4 tumor growth in vivo [3] | EC50 (P-PRAS40 SW48(H1047R); Table 3A, geometric mean) [nM] | Fold Selectivity for SW48(H1047R) vs. SW48(parental) (P-PRAS40 SW48(H1047R); Table 3A) | Ki (PI3Kβ [4]) [nM] | EC50 (P-PRAS40 SW48(parental); [11]) [nM] | EC50 (P-PRAS40 SW48(E545K); Table 3A, geometric mean) [nM] | Fold Selectivity for SW48(E545K) vs. SW48(parental) (P-PRAS40 SW48(E545K); Table 3A) | Ki (PI3Kα; Table 2A) [nM] | Selectivity for PI3Kα vs. PI3K-β (PI3Kα; [12]) | Selectivity for PI3Kα vs. PI3Kγ (PI3Kα; [12]) | Selectivity for PI3Kα vs. PI3Kδ (PI3Kα; [12]) | EC50 [5, 13] [µM] | EC50 [6, 14] [µM] | EC50 [2, 15] [µM] | EC50 [5, 16] [µM] | EC50 [6, 17] [µM] | also measured
C[C@@H]1COC(=O)N1c1cn2c(n1)-c1ccc(N3CCC[C@H]3C(N)=O)cc1OCC2 [Compound 102, (S)-1-(2-((R)-4-Methyl-2-oxooxazolidin-3-yl)-5,6-dihydrobenzo[f]imidazo[1,2-d][1,4]oxazepin-9-yl)pyrrolidine-2-carboxamide] | 205 | 13.3 | 0.48 | well tolerated, with no treatment-related body weight loss observed | strongly inhibit the growth of KPL4 tumors in vivo in a dose-dependent manner | 16.4 | 2.4 (p < 0.001) | 418 | 39.2 | 16.6 | 2.4 (p < 0.001) | 0.56 | 745 | 366 | 24 | 0.05 | 0.1 |  |  |  | 
NC(=O)[C@@H]1CCCN1c1ccc2c(c1)OCCn1cc(N3C(=O)OC[C@H]3C(F)(F)F)nc1-2 [Compound 103, (S)-1-(2-((S)-2-Oxo-4-(trifluoromethyl)oxazolidin-3-yl)-5,6-dihydrobenzo[f]imidazo[1,2-d][1,4]oxazepin-9-yl)pyrrolidine-2-carboxamide] | 45 | 2.28 | 0.15 | well tolerated, with no treatment-related body weight loss observed | strongly inhibit the growth of KPL4 tumors in vivo in a dose-dependent manner | 7.1 | 2.6 (p = 0.002) | 108 | 18.7 | 6.9 | 2.7 (p = 0.002) | 0.155 | 698 | 290 | 15 | 0.02 | 0.38 |  |  |  | 
C[C@H](Oc1ccc2c(c1)OCCn1cc(N3C(=O)OC[C@H]3C(F)(F)F)nc1-2)C(N)=O [Compound 105, (S)-2-((2-((S)-2-Oxo-4-(trifluoromethyl)oxazolidin-3-yl)-5,6-dihydrobenzo[f]imidazo[1,2-d][1,4]oxazepin-9-yl)oxy)propanamide] | 255 | 42.2 | 0.005 |  |  | 53.6 | 3.7 (p = 0.008) | 661 | 199 | 62.9 | 3.2 (p = 0.012) | 2.75 |  |  |  | 0.008 | 0.05 |  |  |  | Selectivity for PI3Kα vs. PI3K-β (PI3Kα): 241; Selectivity for PI3Kα vs. PI3Kγ (PI3Kα): 93; Selectivity for PI3Kα vs. PI3Kδ (PI3Kα): 15
CS(=O)(=O)N1CCN(Cc2cc3nc(-c4cccc5[nH]ncc45)nc(N4CCOCC4)c3s2)CC1 [pictilisib, 4-(2-(1H-indazol-4-yl)-6-((4-(methylsulfonyl)piperazin-1-yl)methyl)thieno[3,2-d]pyrimidin-4-yl)morpholine, reference compound] |  |  |  |  |  |  |  |  |  |  |  |  |  |  |  |  |  | 0.75 | 0.21 | 0.12 | 
Cc1nc(-c2cn3c(n2)-c2ccc(-c4cnn(C(C)(C)C(N)=O)c4)cc2OCC3)n(C(C)C)n1 [taselisib, 2-(4-(2-(1-isopropyl-3-methyl-1H-1,2,4-triazol-5-yl)-5,6-dihydrobenzo[f]imidazo[1,2-d][1,4]oxazepin-9-yl)-1H-pyrazol-1-yl)-2-methylpropanamide, reference compound] |  |  |  |  |  |  |  | 53 |  |  |  |  |  |  |  |  |  | 0.04 | 0.02 | 0.02 | Partial responses (PRs) in enrolled patients [7]: 6/34; Ki (PI3Kγ [8]): 0.97 nM; EC50 (P-PRAS40 SW48(H1047R); Table 3B comparator compounds): 4 nM; EC50 (P-PRAS40 SW48(parental); read-out: P-PRAS40 SW48(parental) EC50 (μM)): 7.9 nM; EC50 (P-PRAS40 SW48(E545K); Table 3B comparator compounds): 3.4 nM; Ki (PI3Kβ [9]): 9.1 nM
